Reference: paper PMC7883726 (Acta Pharmaceutica Sinica. B, 2021)
Read-outs that look alike come from different tables or passages of the source.

Target: SARS-CoV-2 RdRp (Severe acute respiratory syndrome coronavirus 2, UniProt P0DTD1)
Test: biochemical
Assay type: binding
Settings: for koff: read-out: kdis
[1] = KD, BLI, 1:1 binding model, compounds 3.125–100 μmol/L
[2] = BLI, 1:1 binding model, compounds 3.125–100 μmol/L

Row | SMILES | kon [M⁻¹ s⁻¹] | Kd [1] [µM] | koff [s⁻¹] | Kd [µM] | kdis [s⁻¹] | further results
1 | C[C@@H]1O[C@@H](O[C@@H]2[C@@H](O)[C@H](OCCc3ccc(O)c(O)c3)O[C@H](CO)[C@H]2OC(=O)/C=C/c2ccc(O)c(O)c2)[C@H](O)[C@H](O)[C@H]1O [RAI-S-11, Verbascoside] | 108 | 0.84 ± 0.85 | 9.05e-05 | – | – | –
2 | COc1cc(C(=O)NS(=O)(=O)c2ccccc2C)ccc1Cc1cn(C)c2ccc(NC(=O)OC3CCCC3)cc12 [RAI-S-19, Zafirlukast] | 8.43 | > 1000 | 4.99 | – | – | –
3 | O=C(Nc1nc(-c2ccc(O)c(O)c2)c(-c2ccccc2)s1)c1ccc(O)c(O)c1 [RAI-S-34, COH29] | 8.10 | – | – | > 1000 | 0.189 | –
4 | CC1(C)CC[C@]2(C(=O)O)CC[C@]3(C)C(=CC[C@@H]4[C@@]5(C)CCC(=O)C(C)(C)[C@@H]5CC[C@]43C)[C@@H]2C1 [RAI-S-35, Oleanonic Acid] | 98.4 | 171 ± 35.9 | 0.0168 | – | – | –
5 | C[C@@H]1O[C@@H](OC[C@H]2O[C@@H](OCCc3ccc(O)c(O)c3)[C@H](O)[C@@H](O)[C@@H]2OC(=O)/C=C/c2ccc(O)c(O)c2)[C@H](O)[C@H](O)[C@H]1O [RAI-S-36, Forsythoside A] | – | – | – | – | – | Kd [2]: < 50 µM; Kd (BLI, 1:1 binding model, compounds 3.125–100 μmol/L, listed as 36): 1.16 ± 0.44 µM; kon (BLI, association rate constant): 137 M⁻¹ s⁻¹; kdis (BLI, dissociation rate constant): 0.000159 s⁻¹
6 | O=C(O[C@@H]1O[C@@H]2COC(=O)c3cc(O)c(O)c(O)c3-c3c(cc(O)c(O)c3O)C(=O)O[C@H]([C@H]1O)[C@@H]2O)c1cc(O)c(O)c(O)c1 [RAI-S-37, Corilagin] | 496 | 0.54 ± 0.01 | 0.000268 | – | – | –
7 | C[C@@H]1O[C@@H](OC[C@H]2O[C@@H](Oc3cc(O)c4c(=O)cc(-c5ccc(O)cc5)oc4c3)[C@H](O[C@@H]3O[C@@H](C)[C@H](O)[C@@H](O)[C@H]3O)[C@@H](O)[C@@H]2O)[C@H](O)[C@H](O)[C@H]1O [RAI-S-38, Ligustroflavone] | – | – | – | – | – | KD [2]: did not detect the binding
8 | Cc1ccc(Oc2nc3cc(-c4ccc(-c5ccccc5)cc4)c(Cl)cc3[nH]2)cc1C(=O)O [RAI-S-45, MK-3903] | 302 | – | – | 220 ± 19.4 | 0.0665 | –
9 | O=C(O)CCc1cc(C(=O)c2ccc(OC3CCCC3)cc2O)ccc1OCc1ccc2c(=O)[nH]oc2c1 [RAI-S-47, T-5224] | 200 | – | – | 38.7 ± 1.63 | 0.00774 | –
